Data set [1] in a line: Selectivity index, ratio of CC50 for cytotoxicity in human HepG2.2.15 cells assessed as reduction in cell viability to EC50 for antiviral activity against HBV in human HepG2.2.15 cells assessed as reduction in viral replication. The format is toxicity, cell-based. The following applies: read-out: Ratio CC50/EC50.
The test system of data set [2] is Hepatitis B virus. The experiment in a line: Antiviral activity against HBV in human HepG2.2.15 cells assessed as reduction in viral replication incubated for 5 days by real-time PCR analysis. The class given is functional, organism-based. The following applies: HepG2.2.15, 120 h.
Data set [3] is described as follows: Cytotoxicity in human HepG2.2.15 cells assessed as reduction in cell viability. The format is toxicity, cell-based, HepG2 2.2.15.
Data set [4] is described as follows: Metabolic stability in rat liver microsomes assessed as compound remaining measured after 30 mins. The following applies: read-out: Stability. The class given is ADME, Microsome. In general terms: Liver microsomes are a subcellular fraction often used to study metabolism.
Data set [5] is described as follows: Metabolic stability in mouse liver microsomes assessed as compound remaining measured after 30 mins. The following applies: read-out: Stability. The class given is ADME, Microsome.
Data set [6] in a line: Metabolic stability in human liver microsomes assessed as compound remaining measured after 30 mins. The class given is ADME, Microsome. The following applies: read-out: Stability.
The nature of data set [7]: Selectivity index, ratio of CC50 for cytotoxicity in human HepaRG cells assessed as reduction in cell viability to EC50 for antiviral activity against HBV in human HepaRG cells assessed as reduction in viral replication. The format is toxicity, cell-based. The following applies: read-out: Ratio CC50/EC50.
Data set [8] can be described thus: Cytotoxicity in human HepaRG cells assessed as reduction in cell viability. The class given is toxicity, cell-based.
Data set [9] in a line: Selectivity index, ratio of CC50 for cytotoxicity in human HepG2-hNTCP cells assessed as reduction in cell viability to EC50 for antiviral activity against HBV in human HepG2-hNTCP cells assessed as reduction in viral replication. The format is toxicity, cell-based. The following applies: read-out: Ratio CC50/EC50.
In data set [10] the test system is Hepatitis B virus. Description: Antiviral activity against HBV infected in human HepG2 cells expressing NTCP assessed as capsid level at 1 uM incubated for 6 days by Western blot analysis (reference value: 100 %). The class given is functional. The following applies: time 6 day.
Data set [11] relates to Hepatitis B virus. The experiment in a line: Antiviral activity against HBV in human HepG2 cells expressing NTCP assessed as reduction in viral replication. The class given is functional, organism-based.
For data set [12], the system named is Hepatitis B virus. The experiment in a line: Antiviral activity against HBV in human HepaRG cells assessed as reduction in viral replication. The format is functional, organism-based.
The subject of data set [13] is Hepatitis B virus. Description: Antiviral activity against HBV infected in human HepG2 cells expressing NTCP assessed as viral DNA replication at 1 uM incubated for 6 days by Southern blot analysis (reference value: 100 %). The format is functional. The following applies: time 6 day.
In data set [14] the test system is Hepatitis B virus. The experiment in a line: Antiviral activity against HBV infected in human HepG2 cells expressing NTCP assessed as capsid associated HBV DNA level at 1 uM incubated for 6 days by Western blot analysis (reference value: 100 %). The class given is functional. The following applies: time 6 day. Background: In western blotting, separated proteins are transferred to a membrane and probed.

Data set [15] can be described thus: Cytotoxicity in human HepG2-hNTCP cells assessed as reduction in cell viability. The class given is toxicity, cell-based.
Data set [16] concerns Hepatitis B virus. Description: Antiviral activity against HBV infected in human HepG2 cells expressing NTCP assessed as ratio of capsid associated HBV DNA level at 1 uM incubated for 6 days by Western blot analysis (reference value: 100 %). The format is functional. The following applies: time 6 day.
The subject of data set [17] is Hepatitis B virus. Description: Antiviral activity against HBV infected in human HepG2 cells expressing NTCP assessed as intracellular HBc level at 1 uM incubated for 6 days by Western blot analysis (reference value: 100 %). The format is functional. The following applies: time 6 day.

This note sets out measurements from ChEMBL document CHEMBL6177968, “Development of sulfamoylbenzamide-based capsid assembly modulators for hepatitis B virus capsid assembly” (Eur J Med Chem, 2025).

In general, EC50 refers to the concentration that produces a half-maximal response. As a reminder, the CC50 is the concentration at which the toxic effect on the cells reaches its halfway point.

Structures are written as SMILES. A value given as a limit tells only on which side of the number the result lay.

For `Nc1cc(F)c(S(=O)(=O)N[C@@H]2CCOC2=O)cc1C(=O)Nc1ccc(F)c(C(F)F)c1`, the selectivity ratio in data set [1] stood at 147. Besides, the EC50 in the data set on Hepatitis B virus [2] is 1.61 µM. In addition, in data set [3], the CC50 was found to be 238 µM.
Taken in the same sequence, the figures for `CC1(NS(=O)(=O)c2cc(C(=O)Nc3ccc(F)c(C(F)F)c3)c(N)cc2F)COC1` were 458, 0.06 µM and 26.1 µM.
Taken in the same sequence, the figures for `CC(C)NS(=O)(=O)c1cc(C(=O)Nc2ccc(F)c(F)c2)c(N)cc1F` were 36.8, 0.25 µM and 9.29 µM.
Taken in the same sequence, the figures for `Nc1cc(F)c(S(=O)(=O)N2CCS(=O)(=O)CC2)cc1C(=O)Nc1ccc(F)c(C(F)F)c1` were 1740, 0.22 µM and 385 µM.
In the case of `Nc1cc(F)c(S(=O)(=O)NC2CNC2)cc1C(=O)Nc1ccc(F)c(F)c1`, the selectivity ratio in data set [1] stood at 56.5. Also, the EC50 in the data set with Hepatitis B virus [2] was determined as 1.52 µM. For the same molecule, the CC50 in data set [3] is 85.8 µM.
Turning to `Nc1cc(F)c(S(=O)(=O)NCC2COC2)cc1C(=O)Nc1ccc(F)c(C(F)F)c1`, the remaining at 0.5 h in data set [4] was determined as 26%; in data set [5], 31.9%; in [6], 56.2%. Besides, in data set [1], the selectivity ratio came out at 1160. In the data set with Hepatitis B virus [2], the EC50 was 0.13 µM. Further, the 50% cytotoxic concentration (CC50) in data set [3] turned out to be 150 µM.
Regarding `Nc1cc(F)c(S(=O)(=O)N2CC3CCC(C2)O3)cc1C(=O)Nc1ccc(F)c(F)c1`, the selectivity ratio in data set [1] turned out to be 38.5. In addition, in the data set on Hepatitis B virus [2], the concentration for a half-maximal effect (EC50) was 0.36 µM. For the same molecule, the CC50 in [3] was found to be 14 µM.
Taken in the same sequence, the figures for `Nc1cc(F)c(S(=O)(=O)NC2CCNC2)cc1C(=O)Nc1ccc(F)c(F)c1` (centres undefined) were 14.5, 7.52 µM and 109 µM.
Taken in the same sequence, the figures for `COCCNS(=O)(=O)c1cc(C(=O)Nc2ccc(F)c(F)c2)c(N)cc1F` were 32.1, 3.02 µM and 97 µM.
On the same counts, the results for `N#Cc1cc(NC(=O)c2cc(S(=O)(=O)N3CCOCC3)c(F)cc2N)ccc1F` are greater than 299, 3.01 µM and greater than 900 µM.
For `C[C@@H](NS(=O)(=O)c1cc(C(=O)Nc2ccc(F)c(C(F)F)c2)c(N)cc1F)C1COC1`, the selectivity ratio in data set [1] turned out to be 399. Besides, in the data set on Hepatitis B virus [2], the EC50 is 0.47 µM. The cytotoxic concentration (CC50) in data set [3] is 187 µM.
Taken in the same sequence, the figures for `Nc1cc(F)c(S(=O)(=O)NC2CCOCC2)cc1C(=O)Nc1ccc(F)c(F)c1` were 21.1, 1.4 µM and 29.5 µM.
On the same counts, the results for `Cc1cc(NC(=O)c2cc(S(=O)(=O)N3CCOCC3)c(F)cc2N)ccc1F` are 94.7, 4.58 µM and 433 µM.
On the same counts, the results for `C[C@H](CO)NS(=O)(=O)c1cc(C(=O)Nc2ccc(F)c(F)c2)c(N)cc1F` are 296, 0.69 µM and 204 µM.
In the case of `CC1(CNS(=O)(=O)c2cc(C(=O)Nc3ccc(F)c(C(F)F)c3)c(N)cc2F)COC1`, the remaining at 0.5 h in data set [4] stood at 8.38%; in data set [5], 1.37%; in data set [6], 23.6%. For the same molecule, in [1], the selectivity ratio worked out at 14300. Further, in the data set on Hepatitis B virus [2], the EC50 was found to be 0.06 µM. In addition, in data set [3], the CC50 stood at 855 µM.
`Nc1cc(F)c(S(=O)(=O)N2CCNCC2)cc1C(=O)Nc1ccc(F)c(F)c1`: the selectivity ratio in data set [1] came out at 26.4. For the same molecule, the EC50 in the data set with Hepatitis B virus [2] was found to be 1.19 µM. Moreover, the half-maximal cytotoxic concentration (CC50) in data set [3] came to 31.5 µM.
With `O=C(Nc1cc(F)c(F)c(F)c1)c1ccc(F)c(S(=O)(=O)N2CCC(O)CC2)c1`, the selectivity ratio in data set [7] was determined as 6.15; in data set [9], 75.7. Besides, the figures for the CC50 in [8] and in [15] were 23 µM and 24.2 µM, respectively. Besides, the Activity with Hepatitis B virus [10] is 136%; in the data set with Hepatitis B virus [13], 61%; with Hepatitis B virus [14] it was 95%; in the data set with Hepatitis B virus [17], 82%. For the same molecule, the figures for the EC50 in the data set on Hepatitis B virus [11] and in the data set with Hepatitis B virus [12] were 0.32 µM and 3.74 µM, respectively. Further, the Ratio in the data set with Hepatitis B virus [16] is reported as 69%.
`CN(C1COC1)S(=O)(=O)c1cc(C(=O)Nc2ccc(F)c(C(F)F)c2)c(N)cc1F`: the selectivity ratio in [1] came to 115. In addition, in the data set with Hepatitis B virus [2], the EC50 was determined as 0.07 µM. In data set [3], the CC50 was determined as 7.68 µM.
On the same counts, the results for `Nc1cc(F)c(S(=O)(=O)N2CC3(COC3)C2)cc1C(=O)Nc1ccc(F)c(F)c1` are 386, 0.44 µM and 170 µM.
On the same counts, the results for `Nc1cc(F)c(S(=O)(=O)N2CCOCC2)cc1C(=O)Nc1ccc(F)c(C(F)F)c1` are 4240, 0.16 µM and 681 µM.
Taken in the same sequence, the figures for `Nc1cc(F)c(S(=O)(=O)N2CCCOCC2)cc1C(=O)Nc1ccc(F)c(C(F)F)c1` were 96.2, 0.05 µM and 5.14 µM.
Turning to `Nc1cc(F)c(S(=O)(=O)NC2CCOC2)cc1C(=O)Nc1ccc(F)c(F)c1` (centres undefined), the selectivity ratio in [1] was determined as 53.6. For the same molecule, the EC50 with Hepatitis B virus [2] is 0.49 µM. Besides, the 50% cytotoxic concentration (CC50) in [3] was found to be 26.3 µM.
With `C[C@@H](CO)NS(=O)(=O)c1cc(C(=O)Nc2ccc(F)c(F)c2)c(N)cc1F`, the selectivity ratio in data set [1] worked out at 73.7. Besides, in the data set on Hepatitis B virus [2], the EC50 was 2.12 µM. In addition, the CC50 in [3] was 156 µM.
Regarding `Nc1cc(F)c(S(=O)(=O)N[C@@H]2CNC2=O)cc1C(=O)Nc1ccc(F)c(C(F)F)c1`, the 50% effective concentration (EC50) with Hepatitis B virus [2] was greater than 30 µM. In addition, in [3], the CC50 was greater than 900 µM.
Take `Nc1cc(F)c(S(=O)(=O)N[C@H]2COC(=O)C2)cc1C(=O)Nc1ccc(F)c(C(F)F)c1`: the selectivity ratio in data set [1] is 237. Moreover, the EC50 in the data set on Hepatitis B virus [2] is 2.95 µM. Besides, in data set [3], the half-maximal cytotoxic concentration (CC50) is 698 µM.
Taken in the same sequence, the figures for `Nc1cc(F)c(S(=O)(=O)N2CCCOCC2)cc1C(=O)Nc1ccc(F)c(F)c1` were 48.6, 0.22 µM and 10.7 µM.
On the same counts, the results for `Nc1cc(F)c(S(=O)(=O)NC2CCC2)cc1C(=O)Nc1ccc(F)c(C(F)F)c1` are 125, 0.18 µM and 22.8 µM.
`Nc1cc(F)c(S(=O)(=O)N2CC3(COC3)C2)cc1C(=O)Nc1ccc(F)c(C(F)F)c1`: in data set [1], the selectivity ratio was greater than 3540. The EC50 in the data set with Hepatitis B virus [2] is 0.25 µM. Further, the CC50 in [3] is greater than 900 µM.
As to `Nc1cc(F)c(S(=O)(=O)N2CCOCC2)cc1C(=O)Nc1ccc(F)c(Cl)c1`, in the data set with Hepatitis B virus [2], the EC50 was greater than 30 µM. Moreover, the CC50 in data set [3] was determined as 198 µM.
Take `CC(C)(NS(=O)(=O)c1cc(C(=O)Nc2ccc(F)c(C(F)F)c2)c(N)cc1F)C1COC1`: the remaining at 0.5 h in data set [4] was found to be 5.63%; in [5], 0.03%; in [6], 17.2%. Moreover, in data set [1], the selectivity ratio came to 277. Also, the EC50 in the data set on Hepatitis B virus [2] amounted to 0.58 µM. The 50% cytotoxic concentration (CC50) in data set [3] was determined as 161 µM.
Regarding `Nc1cc(F)c(S(=O)(=O)N2CC3COCC3C2)cc1C(=O)Nc1ccc(F)c(C(F)F)c1` (centres undefined), the results for the remaining at 0.5 h in data set [4], in [5] and in data set [6] were 0.79%, 0.09% and 0.76%, respectively. Also, the selectivity ratio in [1] was greater than 9330. The EC50 in the data set on Hepatitis B virus [2] was found to be 0.1 µM. For the same molecule, the CC50 in [3] is greater than 900 µM.
For `Nc1cc(F)c(S(=O)(=O)N2CCOCC2)cc1C(=O)Nc1ccc(F)c(F)c1`, in [1], the selectivity ratio was 610. Moreover, the EC50 in the data set with Hepatitis B virus [2] was 0.41 µM. Moreover, the 50% cytotoxic concentration (CC50) in [3] worked out at 248 µM.
